Reference: patent US8933228B2, “Respiratory formulations and compounds for use therein” (Respivert, Ltd., priority 2010, dated 2015)

How the values were obtained:
[1] = tested on: TNFα release in THP-1 cells; test: LPS-induced TNFα release in THP-1 cells; type: cell-based; conditions: Homo sapiens; THP-1 cells, LPS 3 μg/mL, 4 hr; read-out: THP1 (LPS) TNFα IC50
Description: The inhibition of TNFα production was calculated at each concentration by comparison with vehicle control.

[2] = biological target: p38 MAPK γ (MAPK12) (Homo sapiens (Human), UniProt P53778); test: Enzyme inhibition assay (FRET, Z-LYTE), p38 MAPK gamma; type: biochemical; conditions: read-out: Enzyme Profile: IC50 Values p38γ
Description: (§1) The enzyme inhibitory activity of test compounds was determined by fluorescence resonance energy transfer (FRET) using synthetic peptides labelled with both donor and acceptor fluorophores (Z-LYTE, Invitrogen). Recombinant, phosphorylated p38 MAPK γ (MAPK12:Millipore) was diluted in HEPES buffer, mixed with compound at the desired final concentrations and incubated for 2 hr at RT. The FRET peptide (2 μM) and ATP (100 μM) were next added to the enzyme/compound mixture and incubated for 1 hr. Development reagent (protease) was added for 1 hr prior to detection in a fluorescence microplate reader. The site-specific protease only cleaves non-phosphorylated peptide and eliminates the FRET signal. Phosphorylation levels of each reaction were calculated using the ratio of coumarin emission (donor) over fluorescein emission (acceptor) with high ratios indicating high phosphorylation levels and low ratios indicating low phosphorylation levels.

[3] = biological target: cSrc enzyme (Homo sapiens (Human), UniProt P12931); test: c-SRC enzyme inhibition assay (FRET, Z'-LYTE); type: biochemical; conditions: read-out: Enzyme Profile: IC50 Values cSrc
[4] = tested on: TNFα release in d-U937 cells; test: LPS-induced TNFα release in d-U937 cells; type: cell-based; conditions: Homo sapiens, dU937, LPS 0.1 μg/mL, 4 hr, relative to 10 μg/mL BIRB796, read-out: d-U937 (LPS) TNFα REC50
Description: (§2) U937 cells, a human monocytic cell line, were differentiated to macrophage-type cells by incubation with phorbol myristate acetate (PMA; 100 ng/mL) for 48 to 72 hr, whereupon the cells become adherent. […] Coli: O111:B4, Sigma) for 4 hr. The supernatant was collected for determination of TNFα and IL-8 concentrations by sandwich ELISA (Duo-set, R&D systems). […] The relative 50% effective concentration (REC50) was determined from the resultant concentration-response curve. The inhibition of IL-8 production was calculated at each concentration of test compound by comparison with vehicle control.

[5] = tested on: HRV16; test: Rhinovirus-titre assay; type: cell-based, human rhinovirus; conditions: HRV16; for inhibition at 0.04 µg/mL: Human rhinovirus sp., cell not marked b, test compounds 0.04 μg/mL per method (footnote b, 0.2 μg/mL), read-out: HRV titre (inhibitory %): % inhibition observed vs. HRV16 infection control
Description: MRC5 cells (human lung fibroblast, ATCC) were infected with 1 MOI (multiplicity of infection of 1.0) of HRV16 and incubated for 1 hr at 33° C. with gentle shaking to stimulate adsorption. The cells were then washed with PBS, fresh media was added and the cells were incubated for a further 96 hr. The supernatant was collected and 10-fold serial dilutions of virus containing supernatant were prepared. All titrations were performed by infecting confluent Hela cell monolayers with serially diluted supernatant (10^−1-10^−5) and assessing the cytopathic effect by visual inspection 4 days after infection. The amount of virus required to infect 50% of Hela cells was calculated in each treatment as TCID50. Test compounds (0.04 μg/mL) were added 2 hr before HRV infection and 1 hr after infection when non-infected HRV was washed out. The anti-HRV activity of each test compound was determined as the difference of the log TCID50 of HRV16 in the presence of the compound with the log TCID50 of HRV16 in the absence of compound. […]

[6] = biological target: p38 MAPK alpha (MAPK14) (Homo sapiens (Human), UniProt Q16539); test: Enzyme inhibition assay (FRET, Z-LYTE), p38 MAPK alpha via MAPKAP-K2 activation; type: biochemical; conditions: read-out: Enzyme Profile: IC50 Values p38α
Description: as §1
For p38 MAPK alpha (MAPK14: Invitrogen), enzyme activity was evaluated indirectly by determining activation/phosphorylation of the down-stream molecule, MAPKAP-K2. The p38 MAPK a protein was mixed with compound for 2 hr at RT. […] Development reagent was then added and the mixture incubated for 1 hr before detection by fluorescence completed the assay protocol.
The enzyme inhibitory activity of compound was determined by fluorescence resonance energy transfer (FRET) using synthetic peptides labelled with both donor and acceptor fluorophores (Z′-LYTE, Invitrogen).

[7] = tested on: Differentiated U937 cells; test: MTT assay: cell viability; type: cell-based, human; conditions: 1 μg/ml; for d-U937 MTT Assay 4 h: 5% FCS; for d-U937 MTT Assay 24 h: 10% FCS
Description: Differentiated U937 cells were pre-incubated with each test compound under two protocols: the first for 4 hr in 5% FCS and the second in 10% FCS for 24 h. The supernatant was replaced with 200 μL of new media and 10 μL of MTT stock solution (5 mg/mL) was added to each well. After incubation for 1 hr the media were removed, 200 μL of DMSO was added to each well and the plates were shaken lightly for 1 hr prior to reading the absorbance at 550 nm. The percentage loss of cell viability was calculated for each well relative to vehicle (0.5% DMSO) treatment. Consequently an apparent increase in cell viability for drug treatment relative to vehicle is tabulated as a negative percentage.

[8] = tested on: ICAM-1 expression in BEAS2B cells; test: Poly I:C-induced ICAM-1 induction in BEAS2B cells; type: cell-based; conditions: Homo sapiens, BEAS-2B; BEAS2B cells, poly I:C 1 μg/mL, 18 hr; read-out: BEAS2B (polyIC) ICAM1 IC50
Description: Poly I:C (1 μg/mL) (Invivogene Ltd., San Diego, Calif.) was transfected into BEAS2B cells (human bronchial epithelial cells, ATCC) with Oligofectamine (Invitrogen, Carlsbad, Calif.). Cells were pre-incubated with final concentrations of test compounds for 2 hr and the level of ICAM1 expression on the cell surface was determined by cell-based ELISA. […] The cells were washed with PBS-Tween and incubated with the secondary antibody (HRP-conjugated anti-rabbit IgG, Dako Ltd., Glostrup, Denmark).

[9] = tested on: IL-8 release in d-U937 cells; test: LPS-induced IL-8 release in d-U937 cells; type: cell-based; conditions: Homo sapiens, dU937; d-U937 cells, LPS 0.1 μg/mL, 4 hr; read-out: d-U937 (LPS) IL-8 IC50
Description: as §2

[10] = biological target: HCK enzyme (Homo sapiens (Human), UniProt P08631); test: HCK enzyme inhibition assay (FRET, Z'-LYTE); type: biochemical; conditions: read-out: Enzyme Profile: IC50 Values HCK

| Structure (SMILES) | IC50 [1] [nM] | IC50 [2] [nM] | IC50 [3] [nM] | EC50 [4] [nM] | inhibition at 0.04 µg/mL [5] [%] | IC50 [6] [nM] | d-U937 MTT Assay 4 h [7] | d-U937 MTT Assay 24 h [7] | IC50 [8] [nM] | IC50 [9] [nM] | IC50 [10] [nM] | NBEC (HRV) HRV titre Relative anti-viral activity ([5]; at 0.04 μg/mL vs. pleconaril at 0.1 μg/mL) |
| --- | --- | --- | --- | --- | --- | --- | --- | --- | --- | --- | --- | --- |
| CC(C)(C)c1cc(NC(=O)Nc2ccc(Oc3ccnc4[nH]c(=O)cnc34)c3ccccc23)n(-c2ccccc2)n1 [Example 5, 1-(3-(tert-butyl)-1-phenyl-1H-pyrazol-5-yl)-3-(4-((3-oxo-3,4-dihydropyrido[2,3-b]pyrazin-8-yl)oxy)naphthalen-1-yl) urea] | 13 | 43 | 5 | 6.2 | 36 | 2 | − (− and + indicate the result is below and above the no significant effect threshold, respectively (<30% inhibition at a concentration of 1 μg/ml)) | − (− and + indicate the result is below and above the no significant effect threshold, respectively (<30% inhibition at a concentration of 1 μg/ml)) | 6.6 | 4.1 | 3 | – |
| Cc1nc2c(Oc3ccc(NC(=O)Nc4cc(C(C)(C)C)nn4-c4ccccc4)c4ccccc34)ccnc2[nH]c1=O [Example 7, 1-(3-(tert-butyl)-1-phenyl-1H-pyrazol-5-yl)-3-(4-((2-methyl-3-oxo-3,4-dihydropyrido[2,3-b]pyrazin-8-yl)oxy)naphthalen-1-yl)urea] | 7 | 100 | 7 | 1.7 | 60 | 3 | − (− and + indicate the result is below and above the no significant effect threshold, respectively (<30% inhibition at a concentration of 1 μg/ml)) | − (− and + indicate the result is below and above the no significant effect threshold, respectively (<30% inhibition at a concentration of 1 μg/ml)) | 3 | 4.2 | 3 | – |
| Cc1ccc(-n2nc(C(C)(C)C)cc2NC(=O)Nc2ccc(Oc3ccnc4[nH]c(=O)c(C)nc34)c3ccccc23)cc1 [Example 8, 1-(3-(tert-butyl)-1-(p-tolyl)-1H-pyrazol-5-yl)-3-(4-((2-methyl-3-oxo-3,4-dihydropyrido[2,3-b]pyrazin-8-yl)oxy)naphthalen-1-yl)urea] | 2.5 | 99 | 7 | 0.3 | 91 | 7 | − (− and + indicate the result is below and above the no significant effect threshold, respectively (<30% inhibition at a concentration of 1 μg/ml)) | − (− and + indicate the result is below and above the no significant effect threshold, respectively (<30% inhibition at a concentration of 1 μg/ml)) | 0.6 | 1.7 | 5 | – |
| COc1ccc(-n2nc(C(C)(C)C)cc2NC(=O)Nc2ccc(Oc3ccnc4[nH]c(=O)[nH]c34)c3ccccc23)cc1 [Example 9] | 1.6 | 119 | 7 | 3.1 | 36 | 21 | − (− and + indicate the result is below and above the no significant effect threshold, respectively (<30% inhibition at a concentration of 1 μg/ml)) | − (− and + indicate the result is below and above the no significant effect threshold, respectively (<30% inhibition at a concentration of 1 μg/ml)) | 24 | 27 | < 2 | 3.2 |
| COc1ccc(-n2nc(C(C)(C)C)cc2NC(=O)Nc2ccc(Oc3ccnc4[nH]c(=O)n(C)c34)c3ccccc23)cc1 [Example 10] | 0.6 | 45 | 7 | 1.3 | 91 | 6 | − (− and + indicate the result is below and above the no significant effect threshold, respectively (<30% inhibition at a concentration of 1 μg/ml)) | − (− and + indicate the result is below and above the no significant effect threshold, respectively (<30% inhibition at a concentration of 1 μg/ml)) | 6 | 1 | 3 | – |
| CCn1c(=O)[nH]c2nccc(Oc3ccc(NC(=O)Nc4cc(C(C)(C)C)nn4-c4ccc(OC)cc4)c4ccccc34)c21 [Example 11] | 4 | 348 | 9 | 0.7 | 60 | 2 | − (− and + indicate the result is below and above the no significant effect threshold, respectively (<30% inhibition at a concentration of 1 μg/ml)) | − (− and + indicate the result is below and above the no significant effect threshold, respectively (<30% inhibition at a concentration of 1 μg/ml)) | 3.6 | 1.6 | 5 | – |
| COc1ccc(-n2nc(C(C)(C)C)cc2NC(=O)Nc2ccc(Oc3ccnc4[nH]c(=O)n(C(C)C)c34)c3ccccc23)cc1 [Example 12] | 1.3 | 495 | 12 | 0.5 | 94 | 11 | − (− and + indicate the result is below and above the no significant effect threshold, respectively (<30% inhibition at a concentration of 1 μg/ml)) | − (− and + indicate the result is below and above the no significant effect threshold, respectively (<30% inhibition at a concentration of 1 μg/ml)) | 1.9 | 1.1 | 8 | – |
